Assay results reported in patent publication US11926629B1, “Pyrido[3′,4′:4,5]pyrrolo[2,3-c]isoquinoline compounds as CK2 inhibitors” (KING FAISAL UNIVERSITY, priority 2023, dated 2024).

Columns and labels:
PC3 (prostate) = test: In vitro cytotoxic activity (MTT) assay, PC3; type: cell-based; conditions: Homo sapiens, Prostate cell; PC3 (prostate) cells, exposed for 96 hours; read-out: IC50, 50% inhibition of cell proliferation
Method: (§1) Compounds 1-15 were screened for their in vitro cytotoxic activity utilizing a 3-(4,5-dimethyl-thiazol-2-yl)-2,5-diphenyltetrazolium bromide (MTT) assay against selected cancer human cell lines consisting of PC3 (prostate). HCT116 (colon), A375 (melanoma), H1299 (lung). MIAPaCa-2 (pancreas), HL60 (leukemia). MCF7 (breast), MDA-MB-231 (breast) (T. Mosmann, J. Immunol. Meth., 1983, 65, 55-63). The cells were cultured at 37° C. in RMPI1640 medium supplemented with 10% fetal bovine serum, 50 IU/mL penicillin, and 50 μg/mL streptomycin in a 5% CO2 incubator. All cells were sub-cultured 3 times/week by trypsinisation. Viable cells were seeded and allowed to adhere for 12 h before a test drug was added in 96-well plates at an initial density of 1.0×10^5 cells/mL. Tumour cell lines were separately exposed to various concentrations of the tested compounds followed by incubation at a temperature of 37° C. during 96 h inside a medium of fresh RMPI 1640. Cells were subsequently incubated at 37° C. using MTT at 0.5 mg/mL during 4 h. After removal of supernatant, formazan crystals were dissolved in isopropanol and the optical density was measured at 570 nm. CX-4945 was used as a positive control.

HCT116 (colon) = test: In vitro cytotoxic activity (MTT) assay, HCT116; type: cell-based; conditions: Homo sapiens, HCT-116; HCT116 (colon) cells, exposed for 96 hours; read-out: IC50, 50% inhibition of cell proliferation
Method: as §1

A375 (melanoma) = test: In vitro cytotoxic activity (MTT) assay, A375; type: cell-based; conditions: Homo sapiens, A-375; A375 (melanoma) cells, exposed for 96 hours; read-out: IC50, 50% inhibition of cell proliferation
Method: as §1

H1299 (lung) = test: In vitro cytotoxic activity (MTT) assay, H1299; type: cell-based; conditions: Homo sapiens, NCI-H1299; H1299 (lung) cells, exposed for 96 hours; read-out: IC50, 50% inhibition of cell proliferation
Method: as §1

MIAPaCa-2 (pancreas) = test: In vitro cytotoxic activity (MTT) assay, MIAPaCa-2; type: cell-based; conditions: Homo sapiens, MIA PaCa-2; MIAPaCa-2 (pancreas) cells, exposed for 96 hours; read-out: IC50, 50% inhibition of cell proliferation
Method: as §1

HL60 (leukemia) = test: In vitro cytotoxic activity (MTT) assay, HL60; type: cell-based; conditions: Homo sapiens, HL-60; HL60 (leukemia) cells, exposed for 96 hours; read-out: IC50, 50% inhibition of cell proliferation
Method: as §1

MCF7 (breast) = test: In vitro cytotoxic activity (MTT) assay, MCF7; type: cell-based; conditions: Homo sapiens; MCF7 (breast) cells, exposed for 96 hours; read-out: IC50, 50% inhibition of cell proliferation
Method: as §1

MDA-MB-231 (breast) = test: In vitro cytotoxic activity (MTT) assay, MDA-MB-231; type: cell-based; conditions: Homo sapiens; MDA-MB-231 (breast) cells, exposed for 96 hours; read-out: IC50, 50% inhibition of cell proliferation
Method: as §1

[1] = molecular target: T1, recombinant human CK2 (RRββ-holoenzyme) (Homo sapiens, UniProt P68400); test: CK2 Kinase Assay; type: biochemical; conditions: final ATP concentration 15 μM, 10 min at 30° C.; read-out: IC50 protein kinase CK2 activity
T1 construct: purchased Millipore
T1 sequence (P68400 whole entry): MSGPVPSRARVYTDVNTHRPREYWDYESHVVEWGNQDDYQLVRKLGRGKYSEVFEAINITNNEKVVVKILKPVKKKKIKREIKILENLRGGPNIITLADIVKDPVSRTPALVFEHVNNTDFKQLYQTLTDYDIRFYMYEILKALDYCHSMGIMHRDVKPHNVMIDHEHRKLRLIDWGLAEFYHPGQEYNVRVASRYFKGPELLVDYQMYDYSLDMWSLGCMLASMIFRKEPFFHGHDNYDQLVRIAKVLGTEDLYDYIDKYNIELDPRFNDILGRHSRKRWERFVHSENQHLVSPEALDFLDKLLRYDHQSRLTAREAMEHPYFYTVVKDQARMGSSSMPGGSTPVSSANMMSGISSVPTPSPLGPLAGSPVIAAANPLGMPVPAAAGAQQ
T1 sequence (P67870 whole entry partner): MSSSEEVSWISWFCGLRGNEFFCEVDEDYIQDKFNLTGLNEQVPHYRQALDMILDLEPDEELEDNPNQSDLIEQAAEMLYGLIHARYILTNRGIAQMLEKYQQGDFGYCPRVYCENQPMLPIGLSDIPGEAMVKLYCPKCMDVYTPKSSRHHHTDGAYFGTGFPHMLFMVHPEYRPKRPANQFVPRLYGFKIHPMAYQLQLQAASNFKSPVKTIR
Method: CK2 Kinase Assay was conducted using the protocol as described in Pierre F. et al; J. Med. Chem. 2011, 54, 635-654. The tested compounds in aqueous solution were added at a volume of 10 μL to a reaction mixture comprising 10 μL of assay dilution buffer (ADB; 20 mM MOPS, pH 7.2, 25 mM β-glycerol phosphate, 5 mM EGTA, 1 mM sodium orthovanadate, and 1 mM dithiothreitol), 10 μL of substrate peptide (RRRDDDSDDD, dissolved in ADB at a concentration of 1 mM), 10 μL of recombinant human CK2 (RRββ-holoenzyme, 25 ng dissolved in ADB; Millipore). Reactions were initiated by the addition of 10 μL of ATP solution (90% 75 mMMgCl2, 75 μM ATP (final ATP concentration:15 μM) dissolved in ADB; 10% [γ-33P] ATP (stock 1 mCi/100 μL; 3000 Ci/mmol (Perkin-Elmer) and maintained for 10 min at 30° C. The reactions were quenched with 100 μL of 0.75% phosphoric acid and then transferred to and filtered through a phosphor cellulose filter plate (Millipore). After washing each well five times with 0.75% phosphoric acid, the plate was dried under vacuum for 5 min and, following the addition of 15 μL of scintillation fluid to each well, the residual radioactivity was measured using a Wallac luminescence counter. The IC50 values were derived from eight concentrations of test inhibitors.

Question: Which results are given for `O=C(O)c1ccc2c(c1)c(Nc1cccc(Cl)c1)nc1[nH]c3ccncc3c12` [Compound 1, 5-((3-chlorophenyl)amino)-7H-pyrido[3′,4′:4,5]pyrrolo[2,3-c]isoquinoline-3-carboxylic acid]?
Answer: IC50 (PC3 (prostate)): 1100 nM; IC50 (HCT116 (colon)): 2000 nM; IC50 (A375 (melanoma)): 3300 nM; IC50 (H1299 (lung)): 900 nM; IC50 (MIAPaCa-2 (pancreas)): 1200 nM; IC50 (HL60 (leukemia)): 4300 nM; IC50 (MCF7 (breast)): 3600 nM; IC50 (MDA-MB-231 (breast)): 4400 nM; IC50 [1]: 86 nM
